Laboratory results taken from ChEMBL document CHEMBL4325853, “Design, synthesis and antibacterial evaluation of 2,4-disubstituted-6-thiophenyl-pyrimidines” (Eur J Med Chem, 2019).
≈ marks a conversion by molar mass, not a printed value. Calls of active or inactive are those of the source. The calls are words filed in the database; no cut-off is given here.

Tests used:
[1] = tested on: Bacillus subtilis; assay: Antibacterial activity against Bacillus subtilis 168 after 18 hrs by broth microdilution method; type: functional; conditions: subsp. subtilis str. 168, 18 h
[2] = tested on: Staphylococcus aureus; assay: Antibacterial activity against Staphylococcus aureus ATCC 29213 after 18 hrs by broth microdilution method; type: functional; conditions: ATCC 29213, 18 h
[3] = tested on: Enterococcus faecium; assay: Antibacterial activity against Enterococcus faecium ATCC 49624 after 18 hrs by broth microdilution method; type: functional; conditions: ATCC 49624, 18 h
[4] = tested on: Escherichia coli; assay: Antibacterial activity against Escherichia coli ATCC 25922 after 18 hrs by broth microdilution method; type: functional; conditions: ATCC 25922, 18 h
[5] = tested on: Staphylococcus epidermidis; assay: Antibacterial activity against Staphylococcus epidermidis ATCC 12228 after 18 hrs by broth microdilution method; type: functional; conditions: ATCC 12228, 18 h
[6] = tested on: Enterococcus faecalis; assay: Antibacterial activity against Enterococcus faecalis ATCC 29212 after 18 hrs by broth microdilution method; type: functional; conditions: ATCC 29212, 18 h
[7] = tested on: Staphylococcus aureus; assay: Potency index, ratio of berberine MIC to test compound MIC for Staphylococcus aureus ATCC 29213; type: functional
[8] = tested on: Enterococcus faecalis; assay: Potency index, ratio of berberine MIC to test compound MIC for Enterococcus faecalis ATCC 29212; type: functional
[9] = tested on: Staphylococcus epidermidis; assay: Potency index, ratio of berberine MIC to test compound MIC for Staphylococcus epidermidis ATCC 12228; type: functional
[10] = tested on: Enterococcus faecium; assay: Potency index, ratio of berberine MIC to test compound MIC for Enterococcus faecium ATCC 49624; type: functional
[11] = tested on: Staphylococcus aureus; assay: Ratio of MIC for Staphylococcus aureus ATCC 29213 after and before 11 to 21 serial passages; type: functional
[12] = target: T1, Cell division protein FtsZ (Staphylococcus aureus) (UniProt P0A031); assay: Inhibition of recombinant Staphylococcus aureus FtsZ GTPase activity assessed as reduction in inorganic phosphate formation after 30 mins by colorimetric method
T1 sequence (whole entry): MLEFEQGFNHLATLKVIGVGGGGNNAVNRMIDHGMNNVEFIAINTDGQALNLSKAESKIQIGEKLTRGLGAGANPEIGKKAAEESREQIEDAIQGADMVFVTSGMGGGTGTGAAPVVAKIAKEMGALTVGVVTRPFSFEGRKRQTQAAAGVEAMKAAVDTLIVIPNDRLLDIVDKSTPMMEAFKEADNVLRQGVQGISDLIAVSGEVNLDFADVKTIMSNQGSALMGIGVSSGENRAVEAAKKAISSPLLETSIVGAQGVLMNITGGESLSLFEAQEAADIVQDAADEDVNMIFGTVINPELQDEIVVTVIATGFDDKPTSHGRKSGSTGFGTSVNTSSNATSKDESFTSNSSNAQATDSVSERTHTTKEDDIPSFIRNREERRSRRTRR

[13] = target: T1, Cell division protein FtsZ (Staphylococcus aureus); assay: Inhibition of recombinant Staphylococcus aureus FtsZ polymerization at 8 ug/ml by 90 degree light scattering-based fluorescence spectrometric analysis
[14] = tested on: Staphylococcus aureus; assay: Antibacterial activity against Staphylococcus aureus ATCC 29213 after 10 passages by broth microdilution method; type: functional, organism-based
[15] = tested on: Staphylococcus aureus; assay: Antibacterial activity against methicillin-resistant Staphylococcus aureus ATCC 43300 after 18 hrs by broth microdilution method; type: functional; conditions: ATCC 43300, 18 h
[16] = tested on: Enterococcus faecalis; assay: Antibacterial activity against vancomycin-resistant Enterococcus faecalis ATCC 700221 after 18 hrs by broth microdilution method; type: functional; conditions: ATCC 700221, 18 h
[17] = tested on: Enterococcus faecalis; assay: Antibacterial activity against vancomycin-resistant Enterococcus faecalis ATCC 51575 after 18 hrs by broth microdilution method; type: functional; conditions: ATCC 51575, 18 h
[18] = tested on: Staphylococcus aureus; assay: Antibacterial activity against methicillin-resistant Staphylococcus aureus ATCC BAA1720 after 18 hrs by broth microdilution method; type: functional; conditions: ATCC BAA1720, 18 h
[19] = tested on: Staphylococcus aureus; assay: Antibacterial activity against methicillin-resistant Staphylococcus aureus ATCC 33591 after 18 hrs by broth microdilution method; type: functional; conditions: ATCC 33591, 18 h
[20] = tested on: Staphylococcus aureus; assay: Antibacterial activity against methicillin-resistant Staphylococcus aureus ATCC BAA41 after 18 hrs by broth microdilution method; type: functional; conditions: ATCC BAA41, 18 h
[21] = tested on: Staphylococcus aureus; assay: Antibacterial activity against methicillin-resistant Staphylococcus aureus ATCC 33592 after 18 hrs by broth microdilution method; type: functional; conditions: ATCC 33592, 18 h

MIC90 [1] [µg/mL]	MIC90 [2] [µg/mL]	MIC90 [3] [µg/mL]	MIC90 [4] [µg/mL]	MIC90 [5] [µg/mL]	MIC90 [6] [µg/mL]	Compound	Ratio [7]	Ratio [8]	Ratio [9]	Ratio [10]	further results
192 (≈ 489 µM)	192 (≈ 489 µM)	> 192	> 192	192 (≈ 489 µM)	> 192	Cc1ccc(CN2CCN(CCc3cc(-c4cccs4)nc(C)n3)CC2)cc1	–	–	–	–	–
8 (≈ 16.9 µM)	8 (≈ 16.9 µM)	16 (≈ 33.8 µM)	> 128	8 (≈ 16.9 µM)	16 (≈ 33.8 µM)	Fc1ccc(CN2CCCN(CCc3cc(-c4cccs4)nc(-c4ccncc4)n3)CC2)cc1	50 - 100	50 - 100	50 - 100	50 - 100	–
16 (≈ 35.1 µM)	16 (≈ 35.1 µM)	32 (≈ 70.2 µM)	> 128	16 (≈ 35.1 µM)	32 (≈ 70.2 µM)	c1ccc(CN2CCCN(CCc3cc(-c4cccs4)nc(-c4ccncc4)n3)CC2)cc1	50 - 100	50 - 100	50 - 100	50 - 100	–
> 192	> 192	> 192	> 192	> 192	> 192	Cc1nc(CCN2CCN(Cc3ccccc3)CC2)cc(-c2cccs2)n1	–	–	–	–	–
> 192	> 192	> 192	> 192	> 192	> 192	Cc1nc(CCN2CCN(c3ccc(C(F)(F)F)cc3)CC2)cc(-c2cccs2)n1	–	–	–	–	–
4 (≈ 7.48 µM)	4 (≈ 7.48 µM)	8 (≈ 15 µM)	128 (≈ 239 µM)	4 (≈ 7.48 µM)	8 (≈ 15 µM)	Brc1ccc(CN2CCCN(CCc3cc(-c4cccs4)nc(-c4ccncc4)n3)CC2)cc1	50 - 100	50 - 100	50 - 100	50 - 100	–
128 (≈ 312 µM)	128 (≈ 312 µM)	192 (≈ 468 µM)	> 192	128 (≈ 312 µM)	192 (≈ 468 µM)	Cc1nc(CCN2CCCN(Cc3cccc(F)c3)CC2)cc(-c2cccs2)n1	–	–	–	–	–
8 (≈ 16.9 µM)	8 (≈ 16.9 µM)	16 (≈ 33.8 µM)	> 128	8 (≈ 16.9 µM)	16 (≈ 33.8 µM)	Fc1cccc(CN2CCCN(CCc3cc(-c4cccs4)nc(-c4ccncc4)n3)CC2)c1	50 - 100	50 - 100	50 - 100	50 - 100	–
> 192	> 192	> 192	> 192	> 192	> 192	Cc1nc(CCNCCN2CCOCC2)cc(-c2cccs2)n1	–	–	–	–	–

Compound	MIC90 [1] [µg/mL]	MIC90 [2] [µg/mL]	MIC90 [3] [µg/mL]	MIC90 [4] [µg/mL]	MIC90 [5] [µg/mL]	MIC90 [6] [µg/mL]	Ratio [7]	Ratio [8]	Ratio [9]	Ratio [10]	further results
Cc1nc(CCN2C[C@@H]3C[C@H]2CN3)cc(-c2cccs2)n1	> 192	> 192	> 192	> 192	> 192	> 192	–	–	–	–	–
Cc1nc(-c2cccs2)cc([C@H]2CN3CC[C@H]2C[C@@H]3CNC(=O)CCCC(=O)O)n1	192 (≈ 448 µM)	192 (≈ 448 µM)	> 192	384 (≈ 896 µM)	192 (≈ 448 µM)	> 192	–	–	–	–	–
Cc1nc(CCN2CCCN(Cc3ccc(C(C)C)cc3)CC2)cc(-c2cccs2)n1	64 (≈ 147 µM)	32 (≈ 73.6 µM)	64 (≈ 147 µM)	128 (≈ 294 µM)	32 (≈ 73.6 µM)	64 (≈ 147 µM)	–	–	–	–	Activity [11]: Active; inhibition [12]: Dose-dependent effect; inhibition [13]: Active; Activity [14]: Active
COc1ccc2cc3[n+](cc2c1OC)CCc1cc2c(cc1-3)OCO2 [BERBERINE]	128	128	> 192	> 192	96	> 192	–	–	–	–	MIC90 [15]: 192 µg/mL; MIC90 [16]: > 192 µg/mL; MIC90 [17]: > 192 µg/mL; MIC90 [18]: 192 µg/mL; MIC90 [19]: 192 µg/mL; MIC90 [20]: 192 µg/mL; MIC90 [21]: 192 µg/mL
